According to ChEMBL document CHEMBL1151653, “13-Deoxycarminomycin, a new biosynthetic anthracycline” (J Nat Prod, 1985):
Converted amounts (≈) assume the structure as drawn.

How the values were obtained:
[1] = system: P388; assay: Antitumor activity against mouse P388 cells xenografted in mouse assessed as median survival time at 6.6 mg/kg, ip relative to control; assay type: functional; conditions: route intraperitoneal
[2] = system: HeLa; assay: Cytotoxicity against human HeLa cells assessed as colony formation at 6.2 ng/ml relative to control; assay type: functional
[3] = system: P388; assay: Cytotoxicity against mouse P388 cells; assay type: functional; conditions: read-out: ID50 (the source's name)
[4] = system: P388; assay: Antitumor activity against mouse P388 cells xenografted in mouse assessed as median survival time at 4.4 mg/kg, ip relative to control; assay type: functional; conditions: route intraperitoneal
[5] = system: P388; assay: Antitumor activity against mouse P388 cells xenografted in mouse assessed as median survival time at 2.9 mg/kg, ip relative to control; assay type: functional; conditions: route intraperitoneal
[6] = system: HeLa; assay: Cytotoxicity against human HeLa cells assessed as inhibition of colony formation at 25 ng/ml relative to control; assay type: functional; design: scale not given: the % may be the effect or the level left
[7] = system: Mus musculus; assay: Toxicity in mouse P388 cells xenografted mouse assessed as induction of death at 4.4 mg/kg, ip; assay type: organism-based; design: dose 4.4 mg/kg, route intraperitoneal; conditions: in vivo
[8] = system: HeLa; assay: Cytotoxicity against human HeLa cells assessed as colony formation at 12.5 ng/ml relative to control; assay type: functional
[9] = system: HeLa; assay: Cytotoxicity against human HeLa cells assessed as inhibition of colony formation relative to control; assay type: functional; conditions: read-out: ID50 (the source's name)
[10] = system: P388; assay: Cytotoxicity against doxorubicin resistant mouse P388 cells; assay type: functional; conditions: read-out: ID50 (the source's name)
[11] = system: Mus musculus; assay: Toxicity in mouse P388 cells xenografted mouse assessed as induction of death at 2.9 mg/kg, ip; assay type: organism-based; design: dose 2.9 mg/kg, route intraperitoneal; conditions: in vivo
[12] = system: Staphylococcus aureus; assay: Antimicrobial activity against Staphylococcus aureus 209 P by tube dilution method; assay type: functional
[13] = system: HeLa; assay: Cytotoxicity against human HeLa cells assessed as colony formation at 1.5 ng/ml relative to control; assay type: functional
[14] = system: Escherichia coli; assay: Antimicrobial activity against Escherichia coli B ATCC 11303 by tube dilution method; assay type: functional
[15] = system: P388; assay: Antitumor activity against mouse P388 cells xenografted in mouse assessed as median survival time at 0.6 mg/kg, ip relative to control; assay type: functional; conditions: route intraperitoneal
[16] = system: Mus musculus; assay: Toxicity in mouse P388 cells xenografted mouse assessed as induction of death at 1.5 mg/kg, ip; assay type: organism-based; design: dose 1.5 mg/kg, route intraperitoneal; conditions: in vivo
[17] = system: Bacillus subtilis; assay: Antimicrobial activity against Bacillus subtilis ATCC 6633 by tube dilution method; assay type: functional
[18] = system: Micrococcus luteus; assay: Antimicrobial activity against Sarcina lutea ATCC 9341 by tube dilution method; assay type: functional
[19] = system: P388; assay: Antitumor activity against mouse P388 cells xenografted in mouse assessed as median survival time at 1 mg/kg, ip relative to control; assay type: functional; conditions: route intraperitoneal
[20] = system: HeLa; assay: Cytotoxicity against human HeLa cells assessed as colony formation at 3.1 ng/ml relative to control; assay type: functional
[21] = system: Mus musculus; assay: Toxicity in mouse P388 cells xenografted mouse assessed as induction of death at 0.6 mg/kg, ip; assay type: organism-based; design: dose 0.6 mg/kg, route intraperitoneal; conditions: in vivo
[22] = system: P388; assay: Antitumor activity against mouse P388 cells xenografted in mouse assessed as median survival time at 0.4 mg/kg, ip relative to control; assay type: functional; conditions: route intraperitoneal
[23] = system: Staphylococcus aureus; assay: Antimicrobial activity against drug resistant Staphylococcus aureus isolate 153 producing beta lactamase by tube dilution method; assay type: functional
[24] = system: Mus musculus; assay: Toxicity in mouse P388 cells xenografted mouse assessed as induction of death at 0.4 mg/kg, ip; assay type: organism-based; design: dose 0.4 mg/kg, route intraperitoneal; conditions: in vivo
[25] = system: P388; assay: Antitumor activity against mouse P388 cells xenografted in mouse assessed as median survival time at 1.5 mg/kg, ip relative to control; assay type: functional; conditions: route intraperitoneal

| Compound | Activity [2] [%] | IC50 [3] [ng/mL] | Activity [8] [%] | IC50 [9] [ng/mL] | IC50 [10] [ng/mL] | Activity [13] [%] | Activity [20] [%] | other results |
| --- | --- | --- | --- | --- | --- | --- | --- | --- |
| COc1cccc2c1C(=O)c1c(O)c3c(c(O)c1C2=O)C[C@@](O)(C(C)=O)C[C@@H]3O[C@H]1C[C@H](N)[C@H](O)[C@H](C)O1 [DAUNORUBICIN] | 123 | 9.5 (≈ 0.018 µM) | 48 | 12.5 (≈ 0.0237 µM) | 750 (≈ 1.42 µM) | – | – | T/C [1]: 168%; T/C [4]: 190%; T/C [5]: 177%; Activity [6]: 13%; Activity [7]: Non-toxic; Activity [11]: Non-toxic |
| CC[C@]1(O)Cc2c(O)c3c(c(O)c2[C@@H](O[C@H]2C[C@H](N)[C@H](O)[C@H](C)O2)C1)C(=O)c1c(O)cccc1C3=O | 55 | 1.5 (≈ 0.003 µM) | 36 | 6.2 (≈ 0.0124 µM) | 4 (≈ 0.00801 µM) | 126 | 90 | MIC [12]: 12.5 µg/mL (≈ 25 µM); MIC [14]: 3.12 µg/mL (≈ 6.25 µM); Activity [15]: 150%; Activity [16]: Toxic; MIC [17]: 6.25 µg/mL (≈ 12.5 µM); MIC [18]: 1.56 µg/mL (≈ 3.12 µM); Activity [19]: 163%; Activity [21]: Non-toxic; Activity [22]: 136%; MIC [23]: 25 µg/mL (≈ 50 µM); Activity [24]: Non-toxic; Activity [25]: 109% |
| CC(=O)[C@]1(O)Cc2c(O)c3c(c(O)c2[C@@H](O[C@H]2C[C@H](N)[C@H](O)[C@H](C)O2)C1)C(=O)c1c(O)cccc1C3=O [CARUBICIN] | 3 | 7 (≈ 0.0136 µM) | 0 | 3.1 (≈ 0.00604 µM) | 4 (≈ 0.00779 µM) | 120 | 33 | – |
